Reference: ChEMBL document CHEMBL1153521, “A novel decoy that interrupts G93A-superoxide dismutase gain of interaction with malate dehydrogenase improves survival in an amyotrophic lateral sclerosis cell model” (J Med Chem, 2009)
Active and inactive are the calls of the source. No cut-off for these calls is given here. Peptide text beside a SMILES is read from it. * marks the point of attachment. X1 = CN(C)c1ccc2c(-c3ccc(C(=O)*)cc3C(=O)O)c3ccc(=[N+](C)C)cc-3oc2c1

Experiments:
NSC-34 [1] = assay: Inhibition of interaction of CFP-tagged human SOD1 G93A mutant with YFP-tagged MDH1 transfected in mouse NSC-34 cells by FRET assay; assay type: cell-based; set-up: scale not given: the % may be the effect or the level left
[2] = Drug penetration in mouse NSC-34 cells at 1 uM after 24 hrs by fluorescence confocal microscopy; assay type: ADME, cell-based; settings: nsc-34, 24 h
NSC-34 [3] = assay: Inhibition of interaction of human SOD1 G93A mutant with YFP-tagged MDH1 transfected in mouse NSC-34 cells after 48 hrs by pull-down immunoprecipitation analysis; assay type: cell-based
[4] = Protective effect against 2 mg/ml glucose-induced toxicity in mouse NSC-34 cells expressing GFP-tagged human SOD1 G93A mutant assessed as increase in survival at 1 uM after 48 hrs by methylene blue assay relative to 2 mg/ml glucose-treated cells expressing GFP-tagged wild type human SOD1; assay type: functional
[5] = Increase in ATP level in mouse NSC-34 cells expressing human SOD1 G93A mutant at 1 uM after 48 hrs relative to cells expressing wild type human SOD1; assay type: functional
[6] = Protective effect against rotenone-induced toxicity in mouse NSC-34 cells expressing GFP-tagged human SOD1 G93A mutant assessed as increase in survival at 1 uM after 48 hrs by methylene blue assay relative to rotenone-treated cells expressing GFP-tagged wild type human SOD1; assay type: functional

Row | Compound | Activity (NSC-34 [1]) | Drug uptake [2] | inhibition (NSC-34 [3]) | Activity [4] | Activity [5] | Activity [6]
1 | H-GQIAYSLLYSIGNGS-OH | inactive |  |  |  |  | 
2 | CC(C)C[C@H](NC(=O)[C@H](CC(N)=O)NC(=O)c1ccc(-c2c3ccc(=[N+](C)C)cc-3oc3cc(N(C)C)ccc23)c(C(=O)O)c1)C(=O)N[C@@H](CO)C(=O)O |  | 100% | inactive |  |  | 
3 | H-SWLKGEFITTVQQRGAAVIKARK-OH | 79% |  |  |  |  | 
4 | CC[C@H](C)[C@H](NC(=O)[C@H](Cc1ccccc1)NC(=O)[C@H](CCC(=O)O)NC(=O)CNC(=O)[C@H](CCCCN)NC(=O)[C@H](CC(C)C)NC(=O)[C@H](Cc1c[nH]c2ccccc12)NC(=O)[C@H](CO)NC(=O)c1ccc(-c2c3ccc(=[N+](C)C)cc-3oc3cc(N(C)C)ccc23)c(C(=O)O)c1)C(=O)N[C@H](C(=O)N[C@H](C(=O)N[C@H](C(=O)N[C@@H](CCC(N)=O)C(=O)N[C@@H](CCC(N)=O)C(=O)N[C@@H](CCCNC(=N)N)C(=O)NCC(=O)N[C@@H](C)C(=O)N[C@@H](C)C(=O)N[C@H](C(=O)N[C@H](C(=O)N[C@@H](CCCCN)C(=O)N[C@@H](C)C(=O)N[C@@H](CCCNC(=N)N)C(=O)N[C@@H](CCCCN)C(=O)O)[C@@H](C)CC)C(C)C)C(C)C)[C@@H](C)O)[C@@H](C)O (X1-SWLKGEFITTVQQRGAAVIKARK-OH) |  | 100% | Active | 97% | 90% | 98%
